Source: ChEMBL document CHEMBL4813973, “Discovery of novel N-benzylbenzamide derivatives as tubulin polymerization inhibitors with potent antitumor activities” (Eur J Med Chem, 2021)
≈ marks a conversion by molar mass, not a printed value. Calls of active or inactive are those of the source. The calls are words filed in the database; no cut-off is given here.

Experiments:
H22 [1] = test: Antitumor activity against […] xenografted in ICR mouse assessed as reduction of tumor weight at 10 mg/kg/day, iv for 21 days; format: functional; details: 504 h, time 21 day
MDA-MB-231 = test: Antiproliferative activity against human MDA-MB-231 cells assessed as reduction in cell viability incubated for 72 hrs by MTT assay; format: functional, cell-based; details: MDA-MB-231, 72 h
[2] = Induction of mitochondria membrane potential loss in human A-431 cells assessed as green fluorescence intensity at 30 nM incubated for 48 hrs by JC-1 probe based flow cytometry analysis (reference value: 5.98%); format: functional
A-431 [3] = test: Induction of apoptosis in human A-431 cells assessed as early apoptotic cells at 30 nM after 48 hrs by Annexin-V-APC/PI-staining based flow cytometric analysis (reference value: 0.82%); format: functional
A-431 [4] = test: Anti-microtubule activity in human A-431 cells assessed as cell membrane rounding at 7.5 to 30 nM incubated for 24 hrs by DAPI staining based confocal microscopic analysis; format: functional; details: dose 7.5-30 nM
A-431 [5] = test: Cell cycle arrest in human A-431 cells assessed as downregulation of CyclinB1 expression by Western blot analysis; format: functional, cell-based; details: dose 7.5-30 nM
A-431 [6] = test: Cell cycle arrest in human A-431 cells assessed as downregulation of cdc2 expression by Western blot analysis; format: functional, cell-based; details: dose 7.5-30 nM
A-431 [7] = test: Cell cycle arrest in human A-431 cells assessed as downregulation of p-histone H3 expression by Western blot analysis; format: functional, cell-based; details: dose 7.5-30 nM
[8] = Aqueous solubility of the compound in phosphate buffer at pH 7.4 by HPLC-UV analysis; format: physicochemical
[9] = Metabolic stability in rat plasma assessed as parent compound remaining at 100 nM measured after 60 mins by HPLC analysis; format: ADME, cell-free; details: 1 h, 0.1 µM
A-431 [10] = test: Induction of apoptosis in human A-431 cells assessed as viable cells at 7.5 nM after 48 hrs by Annexin-V-APC/PI-staining based flow cytometric analysis (reference value: 93.37%); format: functional; details: read-out: Activity
A-431 [11] = test: Induction of cell cycle arrest in human A-431 cells assessed as accumulation at G2 phase at 30 nM after 48 hrs by propidium iodide staining based flow cytometry (reference value: 7.27%); format: functional
H22 [12] = test: Antivascular activity against […] xenografted in ICR mouse assessed as reduction in tumor microvessel density at 20 mg/kg/day, iv administered for 21 days by immunohistochemical staining based analysis; format: functional, organism-based; details: time 21.0 day
H22 [13] = test: Antitumor activity against […] xenografted in ICR mouse assessed as reduction of tumor weight at 20 mg/kg/day, iv for 21 days; format: functional; details: 504 h, time 21 day
A-431 [14] = test: Induction of apoptosis in human A-431 cells assessed as downregulation of Bcl2 protein expression by western blot analysis; format: functional, cell-based; details: dose 7.5-30 nM
A-431 [15] = test: Induction of cell cycle arrest in human A-431 cells assessed as accumulation at G2 phase at 15 nM after 48 hrs by propidium iodide staining based flow cytometry (reference value: 7.27%); format: functional
HCT-8 = test: Antiproliferative activity against taxol-resistant human HCT-8 cells assessed as reduction in cell viability incubated for 72 hrs by MTT assay; format: functional, cell-based; details: Homo sapiens, HCT-8, 72 h; read-out: IC50
A-431 [16] = test: Induction of cell cycle arrest in human A-431 cells assessed as accumulation at S phase at 30 nM after 48 hrs by propidium iodide staining based flow cytometry (reference value: 46.57%); format: functional
HUVEC [17] = test: Antivascular activity in HUVEC assessed as inhibition of capillary like tube formation at 30 nM incubated for 6 hrs by matrigel based inverted fluorescence microscopic analysis; format: functional, cell-based; details: Homo sapiens
A-431 [18] = test: Anti-microtubule activity in human A-431 cells assessed as disruption of microtubule network at 7.5 to 30 nM incubated for 24 hrs by DAPI staining based confocal microscopic analysis; format: functional, cell-based; details: dose 7.5-30 nM
HUVEC [19] = test: Antivascular activity in HUVEC assessed as inhibition of migration activity at 30 nM measured after 24 hrs by wound healing based phase contrast microscopic analysis; format: functional, cell-based; details: Homo sapiens
Bel-7402 [20] = test: Antiproliferative activity against ADR-resistant human Bel-7402 cells assessed as reduction in cell viability incubated for 72 hrs by MTT assay; format: functional, cell-based; details: Homo sapiens, Bel-7402, 72 h; read-out: IC50
A-431 [21] = test: Induction of cell cycle arrest in human A-431 cells assessed as accumulation at G1 phase at 15 nM after 48 hrs by propidium iodide staining based flow cytometry (reference value: 41.16%); format: functional
A-431 [22] = test: Induction of apoptosis in human A-431 cells assessed as nuclear fragmentation at 7.5 to 30 nM incubated for 48 hrs by Hoechst33342 staining based fluorescent microscopy; format: functional, cell-based; details: dose 7.5-30 nM
A-431 [23] = test: Induction of apoptosis in human A-431 cells assessed as late apoptotic cells at 7.5 nM after 48 hrs by Annexin-V-APC/PI-staining based flow cytometric analysis (reference value: 2.02%); format: functional
HUVEC [24] = test: Cytotoxicity against HUVEC incubated for 6 hrs by inverted microscopic analysis; format: cell-based; details: Homo sapiens
A-431 [25] = test: Induction of apoptosis in human A-431 cells assessed as activation of p53 at 7.5 to 30 nM by western blot analysis; format: functional, cell-based; details: dose 7.5-30 nM
A-431 [26] = test: Antiproliferative activity against human A-431 cells assessed as reduction in cell viability incubated for 72 hrs by MTT assay; format: functional, cell-based; details: A-431, 72 h
A-431 [27] = test: Induction of apoptosis in human A-431 cells assessed as necrotic cells at 30 nM after 48 hrs by Annexin-V-APC/PI-staining based flow cytometric analysis (reference value: 3.79%); format: functional
K562 = test: cells; details: Homo sapiens, K562, 72 h
Description: Antiproliferative activity against human K562 cells assessed as reduction in cell viability incubated for 72 hrs by MTT assay

A-431 [28] = test: Induction of apoptosis in human A-431 cells assessed as viable cells at 15 nM after 48 hrs by Annexin-V-APC/PI-staining based flow cytometric analysis (reference value: 93.37%); format: functional; details: read-out: Activity
A-431 [29] = test: Induction of apoptosis in human A-431 cells assessed as activation of caspase 3 by western blot analysis; format: functional, cell-based; details: dose 7.5-30 nM
A-431 [30] = test: Induction of apoptosis in human A-431 cells assessed as early apoptotic cells at 7.5 nM after 48 hrs by Annexin-V-APC/PI-staining based flow cytometric analysis (reference value: 0.82%); format: functional
A-431 [31] = test: Induction of apoptosis in human A-431 cells assessed as late apoptotic cells at 30 nM after 48 hrs by Annexin-V-APC/PI-staining based flow cytometric analysis (reference value: 2.02%); format: functional
A-431 [32] = test: Induction of apoptosis in human A-431 cells assessed as upregulation of Bax protein expression by western blot analysis; format: functional, cell-based; details: dose 7.5-30 nM
A-431 [33] = test: Induction of apoptosis in human A-431 cells assessed as activation of caspase 9 at 7.5 to 30 nM by western blot analysis; format: functional, cell-based; details: dose 7.5-30 nM
Bel-7402 [34] = test: Antiproliferative activity against human Bel-7402 cells assessed as reduction in cell viability incubated for 72 hrs by MTT assay; format: functional, cell-based; details: Homo sapiens, Bel-7402, 72 h; read-out: IC50
A-431 [35] = test: Induction of apoptosis in human A-431 cells assessed as late apoptotic cells at 15 nM after 48 hrs by Annexin-V-APC/PI-staining based flow cytometric analysis (reference value: 2.02%); format: functional
A-431 [36] = test: Induction of apoptosis in human A-431 cells assessed as increase in cleaved PARP expression at 7.5 to 30 nM by western blot analysis; format: functional, cell-based; details: dose 7.5-30 nM

Structure (SMILES): COc1ccc(CNC(=O)c2cc(F)ccc2N2CCOCC2)cc1O
- inhibition in vivo at 10 mg/kg/day (H22 [1]): 50.3%
- IC50 (MDA-MB-231): 27 nM
- Activity [2]: 65.96%
- Activity (A-431 [3]): 34.02%
- Activity (A-431 [4]): Active
- Activity (A-431 [5]): Dose-Dependent Effect
- Activity (A-431 [6]): Dose-Dependent Effect
- Activity (A-431 [7]): Dose-Dependent Effect
- solubility [8]: 76.6 µg/mL (≈ 213 µM)
- Stabilty [9]: Stable
- viability at 0.0075 µM (A-431 [10]): 71%
- Activity (A-431 [11]): 24.95%
- Activity (H22 [12]): Active
- inhibition in vivo at 20 mg/kg/day (H22 [13]): 66%
- Activity (A-431 [14]): Dose-Dependent Effect
- Activity (A-431 [15]): 16.25%
- IC50 (HCT-8): 106 nM
- Activity (A-431 [16]): 18.54%
- Activity (HUVEC [17]): Active
- Activity (A-431 [18]): Active
- Activity (HUVEC [19]): Active
- IC50 (Bel-7402 [20]): 104 nM
- Activity (A-431 [21]): 61.16%
- Activity (A-431 [22]): Active
- Activity (A-431 [23]): 9.21%
- IC50 (HUVEC [24]): 120 nM
- Activity (A-431 [25]): Active
- IC50 (A-431 [26]): 14 nM
- Activity (A-431 [27]): 7.35%
- IC50 (K562): 19 nM
- viability at 0.015 µM (A-431 [28]): 45.4%
- Activity (A-431 [29]): Dose-Dependent Effect
- Activity (A-431 [30]): 11.52%
- Activity (A-431 [31]): 32.12%
- Activity (A-431 [32]): Dose-Dependent Effect
- Activity (A-431 [33]): Active
- IC50 (Bel-7402 [34]): 27 nM
- Activity (A-431 [35]): 26.43%
- Activity (A-431 [36]): Active
